The record followed here is ChEMBL document CHEMBL1138448, “Synthesis, biological evaluation, and molecular docking of Ugi products containing a zinc-chelating moiety as novel inhibitors of histone deacetylases” (J Med Chem, 2009).

Test [1] deals with SH-SY5Y. Kind of test: Cytotoxicity against human SH-SY5Y cells assessed as cell viability at 10 uM after 48 hrs by MTT assay relative to control. The note with it: for viability at 10 µM: Homo sapiens, SH-SY5Y, 48 h, read-out: Activity. It counts as functional. In general terms: Tetrazolium dyes change colour on reduction, which living cells bring about.
The subject of test [2] is SH-SY5Y. Kind of test: Cytotoxicity against human SH-SY5Y cells assessed as cell viability after 48 hrs by MTT assay. It counts as functional, cell-based.
For the next test, the target named is Histone deacetylase. Kind of test: Inhibition of HDAC in human SHSY5Y cells by fluorimetric cellular activity assay. It counts as cell-based. The note with it: sh-sy5y.
The subject of test [3] is SH-SY5Y. Kind of test: Cell cycle arrest in human SH-SY5Y cells assessed as accumulation at G2/M phase at 3 uM after 16 hrs by flow cytometry. The test is classed as functional.
The target in test [4] is Histone deacetylase (Homo sapiens) (UniProt Q13547+O15379+Q9UBN7+Q92769+Q9UQL6+Q8WUI4+Q9BY41+Q96DB2+P56524+Q9UKV0+Q969S8). The note with it: SH-SY5Y, at 10 µM.
Description: Inhibition of HDAC in human SHSY5Y cells at 10 uM by fluorimetric cellular activity assay

One may read the IC50 as the point on the concentration scale where inhibition reaches its midpoint.

Calls of active or inactive are those of the source. The calls are words filed in the database; no cut-off is given here.

As for `O=C(CCCCCC(=O)N(Cc1ccccc1)C(Cc1ccccc1)C(=O)NCCc1ccccc1)NO` (stereo not given), the viability at 10 µM in the test with SH-SY5Y [1] is 30.8%. For the same compound, in the test with SH-SY5Y [2], the IC50 is 7.6 µM.
`O=C(CCCCCC(=O)N(Cc1ccccc1)C(Cc1ccccc1)C(=O)NC1CCCCC1)NO` (stereo not given): the viability at 10 µM in the test with SH-SY5Y [1] stood at 27.4%. Besides, the IC50 with SH-SY5Y [2] is 2.5 µM; against Histone deacetylase it was 1.2 µM. In the test on SH-SY5Y [3], the Activity turned out to be 34.3%. The inhibition result in test [4] is “Active”.
With `O=C(CCCCCCC(=O)N(Cc1ccccc1)C(Cc1ccccc1)C(=O)NCCc1ccccc1)NO` (stereo not given), in the test on SH-SY5Y [1], the viability at 10 µM was 53.1%.
As for `O=C(CCCCCCC(=O)N(Cc1ccccc1)C(Cc1ccc(-c2ccccc2)cc1)C(=O)NCCc1ccccc1)NO` (stereo not given), the viability at 10 µM in the test with SH-SY5Y [1] turned out to be 22.2%. Moreover, the IC50 in the test with SH-SY5Y [2] is 4.2 µM; at Histone deacetylase it was 4.4 µM. The Activity with SH-SY5Y [3] worked out at 11.3%. Further, in test [4], the inhibition result was “Active”.
For `Nc1ccccc1NC(=O)CCCCCC(=O)N(Cc1ccccc1)C(Cc1ccccc1)C(=O)NC1CCCCC1` (stereo not given), the viability at 10 µM in the test on SH-SY5Y [1] is 91.6%.
Consider `O=C(CCCCCCC(=O)Nc1ccccc1)NO` [VORINOSTAT], for which the values for the Activity in the test with SH-SY5Y [1] and with SH-SY5Y [3] were 33.8% and 34%, respectively.
Regarding `CCCCCCCC(C(=O)NCCc1ccccc1)N(Cc1ccccc1)C(=O)CCCCCCC(=O)NO` (stereo not given), the viability at 10 µM in the test on SH-SY5Y [1] amounted to 53%.
For `O=C(CCCCCC(=O)N(CCc1ccccc1)C(Cc1ccccc1)C(=O)NCCc1ccccc1)NO` (stereo not given), in the test with SH-SY5Y [1], the viability at 10 µM is 30.2%. Also, in the test with SH-SY5Y [2], the IC50 is 2.9 µM.
On to `Nc1ccccc1NC(=O)CCCCCCC(=O)N(Cc1ccccc1)C(Cc1ccc(-c2ccccc2)cc1)C(=O)NCCc1ccccc1` (stereo not given), for which the viability at 10 µM in the test with SH-SY5Y [1] stood at 74%.
`CCCCCCC(C(=O)NC1CCCCC1)N(CCc1ccccc1)C(=O)CCCCCC(=O)NO` (stereo not given): the viability at 10 µM with SH-SY5Y [1] came to 35%. The IC50 in the test with SH-SY5Y [2] was 2.9 µM.
Turning to `CN(C(=O)CCCCCCC(=O)NO)C(Cc1ccccc1)C(=O)NCCc1ccccc1` (stereo not given), the viability at 10 µM in the test on SH-SY5Y [1] turned out to be 94.4%.
In the case of `O=C(CCCCCC(=O)N(CCc1ccccc1)C(Cc1ccccc1)C(=O)NCc1ccccc1)NO` (stereo not given), the viability at 10 µM in the test on SH-SY5Y [1] stood at 34.9%. The IC50 in the test with SH-SY5Y [2] came to 7.5 µM.
